Data set [1] concerns PANC-1. The experiment in a line: Induction of cell cycle arrest in human PANC-1 cells assessed as accumulation at S phase at 1 uM incubated for 24 hrs in presence of OL by PI staining based flow cytometry (reference value: 38.94 %). The class given is functional.
Data set [2] is described as follows: Toxicity in BALB/c mouse xenografted with human PANC-1 cells assessed as animal morbidity at 20 mg/kg, ip for 4 weeks administered for 5 days consecutively and 2 days without treatment on every week. The class given is organism-based. Particulars: in vivo, 672 h. On the technique in general: A xenograft is tissue or cells of one species grown in another, often human tumour cells in immunodeficient mice.

Data set [3] has as its system PANC-1. Kind of data set: Induction of apoptosis in human PANC-1 cells assessed as necrotic cells at 0.5 uM incubated for 48 hrs by Annexin V-FITC/PI staining based flow cytometry (reference value: 3.09 %). The class given is functional. (Flow cytometry measures light scatter and fluorescence of single cells or particles in a stream.)
The subject of data set [4] is PANC-1. The experiment in a line: Induction of apoptosis in human PANC-1 cells assessed as early apoptotic cells at 1 uM incubated for 48 hrs in presence of OL by Annexin V-FITC/PI staining based flow cytometry (reference value: 1.41 %). The class given is functional.
Data set [5] can be described thus: Toxicity in BALB/c mouse xenografted with human PANC-1 cells assessed as pathological changes in lung at 20 mg/kg, ip for 4 weeks administered for 5 days consecutively and 2 days without treatment on every week in presence of OL by H and E staining based analysis. The class given is organism-based. To be noted: in vivo, 672 h.
Data set [6] deals with PANC-1. The experiment in a line: Induction of cell cycle arrest in human PANC-1 cells assessed as accumulation at G2 phase at 1 uM incubated for 24 hrs by PI staining based flow cytometry (reference value: 9.36 %). Type of data set: functional.
Data set [7] deals with PANC-1. Kind of data set: Induction of cell cycle arrest in human PANC-1 cells assessed as accumulation at S phase at 2 uM incubated for 24 hrs in presence of JQ1 by PI staining based flow cytometry (reference value: 38.94 %). The class given is functional.
Data set [8] has as its target T1, Protein cereblon/Poly [ADP-ribose] polymerase 1 (Homo sapiens, UniProt P09874+Q96SW2). The experiment in a line: PROTAC activity at CRBN/PARP1 in human PANC-1 cells assessed as induction of PARP1 degradation incubated for 24 hrs by Western blot analysis. The class given is cell-based. For orientation: A western blot detects proteins with antibodies after separation by electrophoresis.

For data set [9], the system named is PANC-1. Kind of data set: Induction of apoptosis in human PANC-1 cells assessed as necrotic cells at 2 uM incubated for 48 hrs in presence of JQ1 by Annexin V-FITC/PI staining based flow cytometry (reference value: 3.09 %). The class given is functional.
Data set [10] deals with PANC-1. The experiment in a line: Induction of apoptosis in human PANC-1 cells assessed as early apoptotic cells at 5 uM incubated for 48 hrs by Annexin V-FITC/PI staining based flow cytometry (reference value: 1.41 %). Type of data set: functional.
Data set [11] concerns PANC-1. Kind of data set: Induction of DNA damage in human PANC-1 cells assessed as decrease in BRCA1 level at 2 uM in presence of JQ1 by Western blot analysis. Type of data set: functional, cell-based.
Data set [12] can be described thus: Toxicity in BALB/c mouse xenografted with human PANC-1 cells assessed as pathological changes in spleen at 40 mg/kg, ip for 4 weeks administered for 5 days consecutively and 2 days without treatment on every week in presence of JQ1 by H and E staining based analysis. To be noted: in vivo, 672 h. The class given is organism-based.
The subject of data set [13] is PANC-1. The experiment in a line: Induction of apoptosis in human PANC-1 cells assessed as early apoptotic cells at 10 uM incubated for 48 hrs by Annexin V-FITC/PI staining based flow cytometry (reference value: 1.41 %). Type of data set: functional.
Data set [14] concerns the target T1, Protein cereblon/Poly [ADP-ribose] polymerase 1. Kind of data set: PROTAC activity at CRBN/PARP1 in human BXPC-3 cells assessed as induction of PARP1 degradation at 2 uM incubated for 24 hrs by immunofluorescence based analysis. The class given is cell-based.
Target sequence in this assay (P09874 2-1014 limits assumed): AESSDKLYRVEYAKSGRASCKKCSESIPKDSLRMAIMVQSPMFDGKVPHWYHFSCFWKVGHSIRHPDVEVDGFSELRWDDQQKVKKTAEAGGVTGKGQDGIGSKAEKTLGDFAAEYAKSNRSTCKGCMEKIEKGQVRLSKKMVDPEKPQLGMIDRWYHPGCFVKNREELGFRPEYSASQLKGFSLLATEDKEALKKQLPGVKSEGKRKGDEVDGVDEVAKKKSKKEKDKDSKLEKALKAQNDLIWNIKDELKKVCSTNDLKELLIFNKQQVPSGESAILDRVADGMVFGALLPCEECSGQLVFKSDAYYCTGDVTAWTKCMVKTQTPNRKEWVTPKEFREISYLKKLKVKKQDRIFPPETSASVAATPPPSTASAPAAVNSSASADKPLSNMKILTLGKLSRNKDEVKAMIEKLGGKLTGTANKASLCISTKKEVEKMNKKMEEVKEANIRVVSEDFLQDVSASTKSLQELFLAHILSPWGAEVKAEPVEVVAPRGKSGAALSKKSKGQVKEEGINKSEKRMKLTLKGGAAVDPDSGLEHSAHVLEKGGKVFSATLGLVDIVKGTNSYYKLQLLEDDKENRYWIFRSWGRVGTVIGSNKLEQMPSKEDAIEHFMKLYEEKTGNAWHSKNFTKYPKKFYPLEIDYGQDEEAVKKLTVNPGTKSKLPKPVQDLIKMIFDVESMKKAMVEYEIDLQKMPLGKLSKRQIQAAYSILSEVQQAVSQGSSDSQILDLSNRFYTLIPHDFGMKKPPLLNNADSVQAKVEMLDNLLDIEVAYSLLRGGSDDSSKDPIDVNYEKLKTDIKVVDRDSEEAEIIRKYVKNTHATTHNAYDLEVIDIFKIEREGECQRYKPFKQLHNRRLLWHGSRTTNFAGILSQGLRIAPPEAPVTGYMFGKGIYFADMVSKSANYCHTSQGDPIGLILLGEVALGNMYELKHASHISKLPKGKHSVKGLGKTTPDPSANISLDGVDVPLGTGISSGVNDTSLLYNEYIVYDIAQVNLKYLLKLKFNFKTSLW
Target sequence in this assay (Q96SW2 whole entry partner): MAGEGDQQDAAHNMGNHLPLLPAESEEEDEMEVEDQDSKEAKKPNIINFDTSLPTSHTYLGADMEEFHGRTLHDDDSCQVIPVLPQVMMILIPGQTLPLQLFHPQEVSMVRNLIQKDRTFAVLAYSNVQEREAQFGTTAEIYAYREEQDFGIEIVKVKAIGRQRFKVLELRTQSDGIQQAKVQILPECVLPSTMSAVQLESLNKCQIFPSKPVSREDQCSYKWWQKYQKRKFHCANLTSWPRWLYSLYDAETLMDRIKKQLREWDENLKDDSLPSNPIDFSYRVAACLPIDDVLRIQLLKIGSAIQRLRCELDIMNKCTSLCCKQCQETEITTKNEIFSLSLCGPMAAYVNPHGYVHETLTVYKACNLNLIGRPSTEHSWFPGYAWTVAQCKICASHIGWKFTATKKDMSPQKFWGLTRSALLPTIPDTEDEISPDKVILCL
Data set [15] is described as follows: Toxicity in BALB/c mouse xenografted with human PANC-1 cells assessed as animal morbidity at 40 mg/kg, ip for 4 weeks administered for 5 days consecutively and 2 days without treatment on every week in presence of JQ1. Particulars: in vivo, 672 h. The class given is organism-based.
The nature of data set [16]: Toxicity in BALB/c mouse xenografted with human PANC-1 cells assessed as animal morbidity at 40 mg/kg, ip for 4 weeks administered for 5 days consecutively and 2 days without treatment on every week. Particulars: in vivo, 672 h. Type of data set: organism-based.
For data set [17], the system named is PANC-1. The experiment in a line: Induction of apoptosis in human PANC-1 cells assessed as necrotic cells at 10 uM incubated for 48 hrs by Annexin V-FITC/PI staining based flow cytometry (reference value: 3.09 %). The class given is functional.
Data set [18] can be described thus: Toxicity in BALB/c mouse xenografted with human PANC-1 cells assessed as animal mortality at 40 mg/kg, ip for 4 weeks administered for 5 days consecutively and 2 days without treatment on every week in presence of JQ1. Type of data set: organism-based. To be noted: in vivo, 672 h.
In data set [19] the test system is PANC-1. Kind of data set: Induction of cell cycle arrest in human PANC-1 cells assessed as decrease in CDK4 level at 2 uM incubated for 24 hrs in presence of JQ1 by […]. Type of data set: functional.
A short description of data set [20]: Toxicity in BALB/c mouse xenografted with human PANC-1 cells assessed as body weight loss at 40 mg/kg, ip for 4 weeks administered for 5 days consecutively and 2 days without treatment on every week. The class given is organism-based. To be noted: in vivo, 672 h.
Data set [21] relates to PANC-1. Kind of data set: Induction of apoptosis in human PANC-1 cells assessed as late apoptotic cells at 0.6 uM incubated for 48 hrs by Annexin V-FITC/PI staining based flow cytometry (reference value: 3.87 %). The class given is functional.
Data set [22] relates to PANC-1. Kind of data set: Synergistic antiproliferative activity against human PANC-1 cells expressing wild-type BRCA assessed as inhibition of cell viability incubated for 5 days in presence of JQ1 by CCK8 assay. Type of data set: functional, cell-based. Particulars: time 5.0 day.
In data set [23] the test system is PANC-1. The experiment in a line: Induction of cell cycle arrest in human PANC-1 cells assessed as accumulation at G2 phase at 2 uM incubated for 24 hrs in presence of JQ1 by PI staining based flow cytometry (reference value: 9.36 %). Type of data set: functional.
The subject of data set [24] is PANC-1. Kind of data set: Induction of apoptosis in human PANC-1 cells assessed as late apoptotic cells at 10 uM incubated for 48 hrs by Annexin V-FITC/PI staining based flow cytometry (reference value: 3.87 %). Type of data set: functional.
Data set [25] concerns PANC-1. Kind of data set: Induction of apoptosis in human PANC-1 cells assessed as viable cells at 10 uM incubated for 48 hrs by Annexin V-FITC/PI staining based flow cytometry (reference value: 91.64 %). The class given is functional. Particulars: read-out: Activity.
Data set [26] concerns PANC-1. The experiment in a line: Induction of cell cycle arrest in human PANC-1 cells assessed as accumulation at G1 phase at 5 uM incubated for 24 hrs by PI staining based flow cytometry (reference value: 51.70 %). Type of data set: functional.
Data set [27] relates to PANC-1. Kind of data set: Induction of DNA damage in human PANC-1 cells assessed as increase in gamma-H2AX level at 2 uM in presence of JQ1 by Western blot analysis. Type of data set: functional, cell-based.
A short description of data set [28]: Toxicity in BALB/c mouse xenografted with human PANC-1 cells assessed as pathological changes in spleen at 40 mg/kg, ip for 4 weeks administered for 5 days consecutively and 2 days without treatment on every week by H and E staining based analysis. The class given is organism-based. To be noted: in vivo, 672 h.
Data set [29] deals with PANC-1. Kind of data set: Induction of apoptosis in human PANC-1 cells assessed as late apoptotic cells at 1.2 uM incubated for 48 hrs by Annexin V-FITC/PI staining based flow cytometry (reference value: 3.87 %). Type of data set: functional.
Data set [30] deals with PANC-1. The experiment in a line: Induction of cell cycle arrest in human PANC-1 cells assessed as accumulation at G2/M phase incubated for 24 hrs by PI staining based flow cytometry. Type of data set: functional. Particulars: dose 0.6-2 µM.
Data set [31] has as its system PANC-1. Kind of data set: Induction of apoptosis in human PANC-1 cells assessed as necrotic cells at 0.6 uM incubated for 48 hrs by Annexin V-FITC/PI staining based flow cytometry (reference value: 3.09 %). Type of data set: functional.

Calls of active or inactive are those of the source. The rule behind the calls is not given here.

As a reminder, the DC50 is the concentration giving 50% degradation.

As for `Cc1sc2c(c1C)C(c1ccc(Cl)cc1)=N[C@@H](CC(=O)OC(C)(C)C)c1nnc(C)n1-2`, the Activity in the data set with PANC-1 [1] was 25.85%; in [2] it was “Non-toxic”; in the data set on PANC-1 [3] it was 3.56%; with PANC-1 [4], 5.44%; in data set [5] it was “Non-toxic”; with PANC-1 [6], 10.75%.

`O=C1CCC(N2C(=O)c3cccc(NC(=O)CNCCCCCCCCCCC(=O)N4CCN(C(=O)c5cc(Cc6n[nH]c(=O)c7ccccc67)ccc5F)CC4)c3C2=O)C(=O)N1` (stereo not drawn): the Activity in the data set with PANC-1 [7] is 26.81%; in data set [8] (dose <= 10.0 µM) it was “Dose-dependent-effect”; in the data set on PANC-1 [9], 5%; with PANC-1 [10], 4.76%; in data set [12], “Non-toxic”; in the data set with PANC-1 [13], 4.38%. Also, the Activity result is listed as “Non-toxic” in data set [15]; “Non-toxic” in [16]; 3.83% in the data set on PANC-1 [17]; “Non-toxic” in [18]; “Non-toxic” in data set [20]; 3.89% in the data set with PANC-1 [21]. Also, the Activity was 22.93% with PANC-1 [23]; 5.33% in the data set on PANC-1 [24]; 43.66% in the data set with PANC-1 [26]; “Non-toxic” in data set [28]; 3.71% in the data set with PANC-1 [29]; “Dose-dependent-effect” in the data set on PANC-1 [30]. For the same molecule, the Activity in the data set with PANC-1 [31] is reported as 3.52%. Also, in data set [8], the DC50 was 2.55 nM. In addition, the outcome (in the data set with PANC-1 [11]; in data set [14]; in the data set with PANC-1 [19]; in the data set on PANC-1 [27]) was Active. In addition, in the data set with PANC-1 [22], the inhibition entry was “Active”. Further, in the data set on PANC-1 [25], the viability at 10 µM was found to be 86.3%.

`O=C(c1cc(Cc2n[nH]c(=O)c3ccccc23)ccc1F)N1CCN(C(=O)C2CC2)CC1` [OLAPARIB]: the Activity in the data set with PANC-1 [7] is 25.85%; with PANC-1 [9], 4.77%; with PANC-1 [10], 4.21%; in [12], “Non-toxic”; with PANC-1 [13] it was 3.98%; in data set [15] it was “Non-toxic”. For the same molecule, the Activity result is on record as “Non-toxic” in [16]; 3.35% in the data set with PANC-1 [17]; “Non-toxic” in data set [18]; “Non-toxic” in data set [20]; 4.21% with PANC-1 [21]; 15.74% in the data set with PANC-1 [23]. The Activity in the data set with PANC-1 [24] was 5.35%; in the data set on PANC-1 [26], 40.8%; in [28], “Non-toxic”; in the data set on PANC-1 [29] it was 3.98%; in the data set with PANC-1 [30], “Dose-dependent-effect”; in the data set on PANC-1 [31] it was 3.23%. Also, the result in the data set with PANC-1 [11] and in the data set with PANC-1 [27] was Active. The viability at 10 µM in the data set with PANC-1 [25] amounted to 87.3%.
